This is an account of results in ChEMBL document CHEMBL5543072, “Discovery of a novel lead characterized by a stilbene-extended scaffold against sepsis as soluble epoxide hydrolase inhibitors” (Eur J Med Chem, 2024).

Series [1] has as its system Mus musculus. Description: Anti-inflammatory activity in LPS-induced C57BL/6J mouse model of sepsis assessed as IL-6 in serum at 5 mg/kg, ip preadministered with compound for 24 hrs followed by LPS administration and measured after 3 hrs by ELISA (reference value: 17292 pg/ml). Type of series: functional. To be noted: time 27 hrs. In general terms: In an ELISA, binding on a coated surface is turned into a signal by an enzyme label.

Series [2] can be described thus: AUC (0 to 24 hrs) in Sprague-Dawley rat at 20 mg/kg, po measured after 24 hrs. In kind it is ADME, organism-based. To be noted: in vivo.
Series [3] in a line: Cytotoxicity in HEK293T cells assessed as cell viability at 50 uM incubated for 48 hrs by CCK8 assay relative to control. In kind it is toxicity, cell-based, HEK-293T. Particulars: human, read-out: Activity. A general note: Tetrazolium dyes change colour on reduction, which living cells bring about.
Series [4] relates to Mus musculus. Description: Protection against LPS-induced sepsis in C57BL/6J mouse model at 0.05 mg/kg, iv measured after 72 hrs. Type of series: functional, organism-based.
Series [5] in a line: Apparent volume of distribution in Sprague-Dawley rat at 5 mg/kg, iv measured after 24 hrs. Type of series: ADME, organism-based. To be noted: in vivo, read-out: Vz.
Series [6] can be described thus: Cytotoxicity in HEK293T cells assessed as cell viability at 5 uM incubated for 48 hrs by CCK8 assay relative to control. In kind it is toxicity, cell-based, HEK-293T. To be noted: human, read-out: Activity.
Series [7] in a line: Half-life in Sprague-Dawley rat at 5 mg/kg, iv measured after 24 hrs. Type of series: ADME, organism-based. To be noted: in vivo.
The test system of series [8] is Mus musculus. Put plainly: Protection against LPS-induced sepsis in C57BL/6J mouse model assessed as survival rate at 0.5 mg/kg, iv measured after 24 hrs relative to control. In kind it is functional.
Series [9] can be described thus: Apparent volume of distribution in Sprague-Dawley rat at 20 mg/kg, po measured after 24 hrs. In kind it is ADME, organism-based. To be noted: in vivo.
For series [10], the system named is Mus musculus. Put plainly: Protection against LPS-induced sepsis in C57BL/6J mouse model assessed as survival rate at 0.05 mg/kg, iv measured after 48 hrs relative to control. Type of series: functional.
Series [11] is described as follows: AUC (0 to 24 hrs)in C57BL/6J mouse blood at 5 mg/kg, ip measured after 24 hrs by LC-MS/MS analysis. In kind it is ADME, organism-based.
Series [12] deals with Mus musculus. Put plainly: Protection against LPS-induced sepsis in C57BL/6J mouse model assessed as survival rate at 0.5 mg/kg, iv measured after 48 hrs relative to control. In kind it is functional.
Series [13] in a line: Cmax in C57BL/6J mouse liver at 5 mg/kg, ip measured after 24 hrs by LC-MS/MS analysis. In kind it is ADME, organism-based.
For series [14], the system named is Mus musculus. Description: Protection against LPS-induced sepsis in C57BL/6J mouse model assessed as […] at 5 mg/kg, iv measured after 24 hrs relative to control. In kind it is functional.
Series [15] is described as follows: AUC (0 to 24 hrs) in C57BL/6J mouse liver at 5 mg/kg, ip measured after 24 hrs by LC-MS/MS analysis. In kind it is ADME, organism-based. Particulars: in vivo.

SMILES strings stand for the structures. Calls of active or inactive are those of the source. The rule behind the calls is not given here.

As to `O=C(Cc1ccccn1)Nc1cccc(/C=C/c2ccc(NC(=O)NCC3CCOCC3)cc2)c1`, the Activity with Mus musculus [1] stood at 15627 pg/mL; with Mus musculus [14], 40%. The AUC in series [2] came to 48 ng·h/mL; in series [15], 21370 ng·h/g. The viability at 48 h, 50 µM in [3] came to 46.6%. Further, in the series with Mus musculus [4], the result was inactive. Besides, the Vd in [5] worked out at 10.8 L/kg. For the same compound, in series [6], the viability at 48 h, 5 µM was determined as 82.9%. Moreover, in series [7], the half-life – broadly, the time in which the quantity being followed falls by half – was 24 min. Besides, the survival at 0.5 mg/kg with Mus musculus [8] came out at 50%; in the series with Mus musculus [12], 40%. In addition, the Vz in [9] is 4132.531 L/kg. Besides, the survival at 0.05 mg/kg in the series with Mus musculus [10] came to 10%. Further, the exposure AUC(0-t) (in general, the area under the concentration-time curve up to a stated or last time point) at 24 h in [11] was 122 ng·h/mL. Besides, the concentration in series [13] peaked (Cmax) at 2510 ng/g.
